Results: the CheMixHub viscosity set

Assay: xn = mol fraction of the nth substance listed
Conditions: 100 kPa

CCCCCCCCCCCCCC[P+](CCCCCC)(CCCCCC)CCCCCC.c1c[n-]nn1 + CCCCn1cc[n+](C)c1.O=S(=O)([N-]S(=O)(=O)C(F)(F)F)C(F)(F)F
viscosity [mPa·s]
Conditions	293.15 K	298.15 K	303.15 K	308.15 K	313.15 K	318.15 K	323.15 K
x1 = 0.1	98	77	61	49	–	–	–
x1 = 0.2	164	123	96	76	62	50	–
x1 = 0.278	242	178	135	107	84	68	56
x1 = 0.612	602	428	311	231	174	135	107
x1 = 0.699	663	468	339	252	190	147	115
x1 = 0.8	723	507	368	273	205	158	125
x1 = 0.9	685	486	353	263	199	154	123
